Experiments:
[1] = target: muscle-type nicotinic acetylcholine receptors (Homo sapiens, UniProt P02708+P07510+P11230+Q07001); test: Determination of interaction with muscle receptors; type: cell-based; settings: at a concentration of 100 uM; percentage of maximal activation induced by (S)-(-)-nicotine
Procedure: Determination of Interaction with Muscle Receptors
The determination of the interaction of the compounds with muscle receptors was carried out in accordance with the techniques described in U.S. Pat. No. 5,597,919 to Dull et al. The maximal activation for individual compounds (Emax) was determined as a percentage of the maximal activation induced by (S)-(−)-nicotine. Reported Emax values represent the amount released relative to (S)-(−)-nicotine on a percentage basis.

[2] = test system: ganglionic-type nicotinic acetylcholine receptors; test: Determination of interaction with ganglion receptors; type: cell-based; settings: at a concentration of 100 uM; percentage of maximal activation induced by (S)-(-)-nicotine
Procedure: Determination of Interaction with Ganglion Receptors
The determination of the interaction of the compounds with ganglionic receptors was carried out in accordance with the techniques described in U.S. Pat. No. 5,597,919 to Dull et al. The maximal activation for individual compounds (Emax) was determined as a percentage of the maximal activation induced by (S)-(−)-nicotine. Reported Emax values represent the amount released relative to (S)-(−)-nicotine on a percentage basis.

[3] = target: CNS nicotinic receptors; test: Determination of binding to relevant receptor sites; settings: inhibition constant calculated from IC50 by the method of Cheng et al.
Procedure: Determination of Binding to Relevant Receptor Sites
Binding of the compounds to relevant receptor sites was determined in accordance with the techniques described in U.S. Pat. No. 5,597,919 to Dull et al. Inhibition constants (Ki values), reported in nM, were calculated from the IC50 values using the method of Cheng et al., Biochem, Pharmacol. 22:3099 (1973).

Chain of muscle-type nicotinic acetylcholine receptors (P02708 whole entry): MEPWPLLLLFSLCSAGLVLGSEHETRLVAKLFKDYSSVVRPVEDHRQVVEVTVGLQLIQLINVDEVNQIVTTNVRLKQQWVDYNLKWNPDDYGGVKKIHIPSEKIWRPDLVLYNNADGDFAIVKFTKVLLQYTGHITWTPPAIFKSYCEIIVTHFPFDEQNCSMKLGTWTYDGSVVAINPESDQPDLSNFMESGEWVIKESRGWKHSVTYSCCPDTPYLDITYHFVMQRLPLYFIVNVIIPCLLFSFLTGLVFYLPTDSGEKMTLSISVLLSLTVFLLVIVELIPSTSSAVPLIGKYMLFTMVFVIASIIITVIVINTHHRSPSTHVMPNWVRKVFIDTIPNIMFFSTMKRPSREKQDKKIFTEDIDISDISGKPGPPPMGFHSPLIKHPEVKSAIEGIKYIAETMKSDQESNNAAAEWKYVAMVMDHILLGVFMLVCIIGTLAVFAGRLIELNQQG
Chain of muscle-type nicotinic acetylcholine receptors (P11230 24-501): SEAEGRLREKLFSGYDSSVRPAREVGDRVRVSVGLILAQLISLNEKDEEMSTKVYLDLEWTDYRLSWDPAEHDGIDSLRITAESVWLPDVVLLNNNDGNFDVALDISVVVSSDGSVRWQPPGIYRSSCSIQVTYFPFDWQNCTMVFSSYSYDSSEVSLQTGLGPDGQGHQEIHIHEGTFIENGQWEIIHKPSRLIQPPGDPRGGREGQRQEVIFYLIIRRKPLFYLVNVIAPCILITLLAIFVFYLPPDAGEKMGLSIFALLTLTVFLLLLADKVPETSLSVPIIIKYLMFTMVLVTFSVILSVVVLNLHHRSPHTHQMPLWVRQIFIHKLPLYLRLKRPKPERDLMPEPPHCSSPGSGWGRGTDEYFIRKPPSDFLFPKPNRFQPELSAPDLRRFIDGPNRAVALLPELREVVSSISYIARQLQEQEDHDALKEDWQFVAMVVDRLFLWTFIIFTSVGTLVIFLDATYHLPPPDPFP
Chain of muscle-type nicotinic acetylcholine receptors (P07510 23-517): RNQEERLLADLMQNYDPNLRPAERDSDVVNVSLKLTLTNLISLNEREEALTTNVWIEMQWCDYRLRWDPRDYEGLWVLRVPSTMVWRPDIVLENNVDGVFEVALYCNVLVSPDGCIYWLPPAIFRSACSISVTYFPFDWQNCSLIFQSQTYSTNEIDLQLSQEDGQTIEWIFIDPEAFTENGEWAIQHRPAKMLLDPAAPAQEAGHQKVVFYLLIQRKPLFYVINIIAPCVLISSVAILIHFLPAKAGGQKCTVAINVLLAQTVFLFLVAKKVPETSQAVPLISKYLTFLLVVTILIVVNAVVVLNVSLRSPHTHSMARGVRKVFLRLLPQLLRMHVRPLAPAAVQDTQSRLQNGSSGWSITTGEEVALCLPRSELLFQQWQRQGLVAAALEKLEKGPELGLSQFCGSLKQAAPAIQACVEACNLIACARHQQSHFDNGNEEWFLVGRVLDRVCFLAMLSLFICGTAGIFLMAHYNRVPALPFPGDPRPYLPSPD
Chain of muscle-type nicotinic acetylcholine receptors (Q07001 22-517): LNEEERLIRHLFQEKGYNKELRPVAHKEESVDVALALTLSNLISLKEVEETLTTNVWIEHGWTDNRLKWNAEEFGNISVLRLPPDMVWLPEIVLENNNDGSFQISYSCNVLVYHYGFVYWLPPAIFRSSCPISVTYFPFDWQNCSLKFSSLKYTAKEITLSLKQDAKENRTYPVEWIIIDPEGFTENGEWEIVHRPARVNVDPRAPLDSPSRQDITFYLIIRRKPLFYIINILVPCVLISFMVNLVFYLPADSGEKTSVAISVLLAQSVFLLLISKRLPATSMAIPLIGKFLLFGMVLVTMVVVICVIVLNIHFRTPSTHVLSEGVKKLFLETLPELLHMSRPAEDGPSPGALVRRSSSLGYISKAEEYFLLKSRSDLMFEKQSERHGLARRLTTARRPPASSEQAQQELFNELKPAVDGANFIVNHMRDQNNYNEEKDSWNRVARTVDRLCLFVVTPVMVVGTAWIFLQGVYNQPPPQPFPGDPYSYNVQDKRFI

| Compound | Emax at muscle-type receptors [1] [%] | Emax at ganglionic-type receptors [2] [%] | Ki [3] [nM] |
| --- | --- | --- | --- |
| (1S,4S)-(5-pyrimidinyl)-2,5-diazabicyclo[2.2.1]heptane hemigalactarate [Sample No. 3] | 100 | 11 | – |
| Brc1cncc(N2C[C@@H]3C[C@H]2CN3)c1 [Sample No. 1, (1S,4S)-(5-bromo-3-pyridyl)-2,5-diazabicyclo[2.2.1]heptane] | 0 | 5 | 56 |
| (1S,4S)-(6-chloro-3-pyridazinyl)-2,5-diazabicyclo[2.2.1]heptane hemigalactarate [Sample No. 4] | 0 | 28 | – |
| (1S,4S)-(5-(4-methoxyphenoxy)-3-pyridyl)-2,5-diazabicyclo[2.2.1]heptane hemigalactarate [Sample No. 2] | 12 | 11 | – |
